Assay results as given in patent publication US20140073634A1 (Institute For Applied Cancer Science/The University of …, priority 2012, published 2014).
Where a name gives a salt, the structure may show the parent alone.

Each compound was assayed on 293T-HRE-GFP-luc cells (assay: Cell-based reporter assay for IC50 determinations (HRE-luciferase, hypoxia)). Conditions: 6 h, 6 hrs hypoxia (1% O2), luminescence.
Method: Cell-Based Reporter Assay for IC50 Determinations
293T-HRE-GFP-luc cells were routinely maintained in DMEM media (high glucose version with GlutaMAX and HEPES, Gibco, catalog #10564) supplemented with 10% fetal bovine serum and 2 μg/mL puromycin (Invitrogen, catalog #A11138-03) using a humidified incubator (normoxia conditions consisting of 37° C., 5% CO2 and ambient O2).
In preparation for the reporter assay, cells were harvested and resuspended in DMEM media (high glucose version with GlutaMAX and HEPES) supplemented with 10% fetal bovine serum. Cells were inoculated into 384-well white Culturplates (Perkin Elmer catalog #6007680) at a density of 12,000 cells/well in a volume of […]. The microplates were incubated overnight (approximately 17-19 hours) at 37° C. with 5% CO2 and ambient O2. Stock solutions of the test compounds were prepared in DMSO (Sigma, Catalog #D2650) and serially diluted 1:3 using DMSO. Compounds were additionally diluted (1:50) with culturemedium and 10 µL were added per well to the Culturplate. Following a 30 min. incubation under normoxia conditions, the plates were incubated in hypoxia for 6 hrs. (37° C., 5% CO2 and 1% O2). Steadylite Plus (Perkin Elmer, catalog #6016751) was then added ([…]), the plates were mixed on an orbital shaker at room temperature in the dark for 15 min., and luminescence was measured using an Envision plate reader (Perkin Elmer). IC50 values were calculated using a four-parameter logistic curve fit. Results are shown below in Table 2; ND indicates no data.

SMILES | IC50
Cc1ccc(C(=O)Nc2ccc(OC(F)(F)F)cc2)c(=O)n1Cc1cccc(N2CCN(C)CC2)c1 [Example 10, 1-Methyl-4-(3-((6-methyl-2-oxo-3-((4-(trifluoromethoxy)phenyl)carbamoyl)pyridin-1(2H)-yl)methyl)phenyl)piperazin-1-ium trifluoroacetate] | < 100 nM
CN1CCN(c2cccc(Cn3cccc(C(=O)Nc4ccc(OC(F)(F)F)cc4)c3=O)c2)CC1 [Example 11, 1-Methyl-4-(3-((2-oxo-3-((4-(trifluoromethoxy)phenyl)carbamoyl)pyridin-1(2H)-yl)methyl)phenyl)piperazin-1-ium trifluoroacetate] | < 100 nM
O=c1ccc(-c2nc(-c3ccc(OC(F)(F)F)cc3)no2)nn1Cc1ccnc(N2CCOCC2)c1 [Example 12, 2-((2-Morpholinopyridin-4-yl)methyl)-6-(3-(4-(trifluoromethoxy)phenyl)-1,2,4-oxadiazol-5-yl)pyridazin-3(2H)-one] | < 100 nM
CN1CCN(c2cccc(Cn3nc(-c4nc(-c5ccc(OC(F)(F)F)cc5)no4)ccc3=O)c2)CC1 [Example 13, 2-(3-(4-Methylpiperazin-1-yl)benzyl)-6-(3-(4-(trifluoromethoxy)phenyl)-1,2,4-oxadiazol-5-yl)pyridazin-3(2H)-one] | < 100 nM
O=c1ccc(-c2nc(-c3ccc(OC(F)(F)F)cc3)no2)nn1Cc1cccc(N2CCOCC2)c1 [Example 14, 2-(3-Morpholinobenzyl)-6-(3-(4-(trifluoromethoxy)phenyl)-1,2,4-oxadiazol-5-yl)pyridazin-3(2H)-one] | < 100 nM
Cc1ccc(-c2nc(-c3ccc(OC(F)(F)F)cc3)no2)c(=O)n1Cc1ccnc(N2CCCCC2)c1 [Example 15, 4-((6-Methyl-2-oxo-3-(3-(4-(trifluoromethoxy)phenyl)-1,2,4-oxadiazol-5-yl)pyridin-1(2H)-yl)methyl)-2-(piperidin-1-yl)pyridin-1-ium trifluoroacetate] | < 100 nM
Cc1ccc(-c2nc(-c3ccc(OC(F)(F)F)cc3)no2)c(=O)n1Cc1ccnc(N2CCCC2)c1 [Example 16, 4-((6-methyl-2-oxo-3-(3-(4-(trifluoromethoxy)phenyl)-1,2,4-oxadiazol-5-yl)pyridin-1(2H)-yl)methyl)-2-(pyrrolidin-1-yl)pyridin-1-ium trifluoroacetate] | < 100 nM
COCCCNc1cc(Cn2c(C)ccc(-c3nc(-c4ccc(OC(F)(F)F)cc4)no3)c2=O)ccn1 [Example 17, 2-((3-Methoxypropyl)amino)-4-((6-methyl-2-oxo-3-(3-(4-(trifluoromethoxy)phenyl)-1,2,4-oxadiazol-5-yl)pyridin-1(2H)-yl)methyl)pyridin-1-ium trifluoroacetate] | 100 to 1000 nM
Cc1ccc(-c2nc(-c3ccc(OC(F)(F)F)cc3)no2)c(=O)n1Cc1ccnc(N2CCOCC2)c1 [Example 18, 4-((6-Methyl-2-oxo-3-(3-(4-(trifluoromethoxy)phenyl)-1,2,4-oxadiazol-5-yl)pyridin-1(2H)-yl)methyl)-2-morpholinopyridin-1-ium trifluoroacetate] | < 100 nM
Cc1cnc(-c2nc(-c3ccc(OC(F)(F)F)cc3)no2)nc1Cc1cccc(N2CCN(C)CC2)c1 [Example 19, 5-(5-methyl-4-(3-(4-methylpiperazin-1-yl)benzyl)pyrimidin-2-yl)-3-(4-(trifluoromethoxy)phenyl)-1,2,4-oxadiazole] | < 100 nM
CN1CCN(c2cc(Cn3cccc(-c4nc(-c5ccc(OC(F)(F)F)cc5)no4)c3=O)ccn2)CC1 [Example 20, 1-((2-(4-methylpiperazin-1-yl)pyridin-4-yl)methyl)-3-(3-(4-(trifluoromethoxy)phenyl)-1,2,4-oxadiazol-5-yl)pyridin-2(1H)-one] | 100 to 1000 nM
Cc1ccc(-c2nnc(-c3ccc(OC(F)(F)F)cc3)o2)c(=O)n1Cc1ccnc(N2CCN(C)CC2)c1 [Example 21, 6-methyl-1-((2-(4-methylpiperazin-1-yl)pyridin-4-yl)methyl)-3-(5-(4-(trifluoromethoxy)phenyl)-1,3,4-oxadiazol-2-yl)pyridin-2(1H)-one] | 1000 to 10000 nM
Cc1ccc(-c2nc(-c3ccc(OC(F)(F)F)cc3)no2)c(=O)n1Cc1cccc(C(N)=O)c1 [Example 22, 3-((6-Methyl-2-oxo-3-(3-(4-(trifluoromethoxy)phenyl)-1,2,4-oxadiazol-5-yl)pyridin-1(2H)-yl)methyl)benzamide] | 100 to 1000 nM
CNC(=O)c1cccc(Cn2c(C)ccc(-c3nc(-c4ccc(OC(F)(F)F)cc4)no3)c2=O)c1 [Example 23, N-Methyl-3-((6-methyl-2-oxo-3-(3-(4-(trifluoromethoxy)phenyl)-1,2,4-oxadiazol-5-yl)pyridin-1(2H)-yl)methyl)benzamide] | 100 to 1000 nM
Cc1ccc(Cn2nc(-c3nc(-c4ccc(OC(F)(F)F)cc4)no3)ccc2=O)cc1 [Example 24, 2-(4-Methylbenzyl)-6-(3-(4-(trifluoromethoxy)phenyl)-1,2,4-oxadiazol-5-yl)pyridazin-3(2H)-one] | < 100 nM
NC(=O)c1cccc(Cn2cc(-c3nc(-c4ccc(OC(F)(F)F)cc4)no3)ccc2=O)c1 [Example 25, 3-((2-oxo-5-(3-(4-(trifluoromethoxy)phenyl)-1,2,4-oxadiazol-5-yl)pyridin-1(2H)-yl)methyl)benzamide] | < 100 nM
Cc1ccc(Cn2cc(-c3nc(-c4ccc(OC(F)(F)F)cc4)no3)ccc2=O)cc1 [Example 26, 1-(4-Methylbenzyl)-5-(3-(4-(trifluoromethoxy)phenyl)-1,2,4-oxadiazol-5-yl)pyridin-2(1H)-one] | < 100 nM
Cc1ccc(-c2nnc(-c3ccc(OC(F)(F)F)cc3)o2)c(=O)n1Cc1ccnc(N2CCOCC2)c1 [Example 27, 6-Methyl-1-((2-morpholinopyridin-4-yl)methyl)-3-(5-(4-(trifluoromethoxy)phenyl)-1,3,4-oxadiazol-2-yl)pyridin-2(1H)-one] | 100 to 1000 nM
Cc1ccc(-c2nnc(-c3ccc(OC(F)(F)F)cc3)o2)c(=O)n1Cc1ccnc(N2CCC(C#N)CC2)c1 [Example 28, 1-(4-((6-Methyl-2-oxo-3-(5-(4-(trifluoromethoxy)phenyl)-1,3,4-oxadiazol-2-yl)pyridin-1(2H)-yl)methyl)pyridin-2-yl)piperidine-4-carbonitrile] | 100 to 1000 nM
COC(=O)Cc1cccc(Cn2nc(-c3nc(-c4ccc(OC(F)(F)F)cc4)no3)ccc2=O)c1 [Example 29, Methyl 2-{3-[(6-oxo-3-{3-[4-(trifluoromethoxy)phenyl]-1,2,4-oxadiazol-5-yl}-1,6-dihydropyridazin-1-yl)methyl]phenyl}acetate] | < 100 nM
COC(=O)C(C)(C)c1cccc(Cn2nc(-c3nc(-c4ccc(OC(F)(F)F)cc4)no3)ccc2=O)c1 [Example 30, Methyl 2-methyl-2-{3-[(6-oxo-3-{3-[4-(trifluoromethoxy)phenyl]-1,2,4-oxadiazol-5-yl}-1,6-dihydropyridazin-1-yl)methyl]phenyl}propanoate] | < 100 nM
O=c1ccc(-c2nc(-c3ccc(OC(F)(F)F)cc3)no2)cn1Cc1cccc(N2CCCC2)c1 [Example 31, 1-{[3-(Pyrrolidin-1-yl)phenyl]methyl}-5-{3-[4-(trifluoromethoxy)phenyl]-1,2,4-oxadiazol-5-yl}-1,2-dihydropyridin-2-one] | < 100 nM
O=c1ccc(-c2nc(-c3ccc(OC(F)(F)F)cc3)no2)cn1Cc1cccc(O)c1 [Example 32, 1-[(3-Hydroxyphenyl)methyl]-5-{3-[4-(trifluoromethoxy)phenyl]-1,2,4-oxadiazol-5-yl}-1,2-dihydropyridin-2-one] | 100 to 1000 nM
COCCOc1cccc(Cn2cc(-c3nc(-c4ccc(OC(F)(F)F)cc4)no3)ccc2=O)c1 [Example 33, 1-{[3-(2-Methoxyethoxy)phenyl]methyl}-5-{3-[4-(trifluoromethoxy)phenyl]-1,2,4-oxadiazol-5-yl}-1,2-dihydropyridin-2-one] | 100 to 1000 nM
NCCOc1cccc(Cn2cc(-c3nc(-c4ccc(OC(F)(F)F)cc4)no3)ccc2=O)c1 [Example 34, 1-{[3-(2-Aminoethoxy)phenyl]methyl}-5-{3-[4-(trifluoromethoxy)phenyl]-1,2,4-oxadiazol-5-yl}-1,2-dihydropyridin-2-one] | < 100 nM
CN(C)S(=O)(=O)c1cccc(Cn2cc(-c3nc(-c4ccc(OC(F)(F)F)cc4)no3)ccc2=O)c1 [Example 35, N,N-Dimethyl-3-[(2-oxo-5-{3-[4-(trifluoromethoxy)phenyl]-1,2,4-oxadiazol-5-yl}-1,2-dihydropyridin-1-yl)methyl]benzene-1-sulfonamide] | < 100 nM
CC(C)(C(=O)O)c1cccc(Cn2cc(-c3nc(-c4ccc(OC(F)(F)F)cc4)no3)ccc2=O)c1 [Example 36, 2-Methyl-2-{3-[(2-oxo-5-{3-[4-(trifluoromethoxy)phenyl]-1,2,4-oxadiazol-5-yl}-1,2-dihydropyridin-1-yl)methyl]phenyl}propanoic acid] | 100 to 1000 nM
CCCS(=O)(=O)c1cccc(Cn2cc(-c3nc(-c4ccc(OC(F)(F)F)cc4)no3)ccc2=O)c1 [Example 37, 1-{[3-(propane-1-sulfonyl)phenyl]methyl}-5-{3-[4-(trifluoromethoxy)phenyl]-1,2,4-oxadiazol-5-yl}-1,2-dihydropyridin-2-one] | < 100 nM
